# Results: patent US5728685A, “Methods of treating inflammation using cell adhesion inhibitors” (Glycomed Incorporated, priority 1995, dated 1998)
# Experiments:
# [1] = system: L-SELECTIN (L Selectin-IgG chimera); assay: ELISA: inhibition of L-selectin binding to 2,3 sLex glycolipid
# From the text: (§1) E-SELECTIN transfected COS cells produced by the above method may be used to assay for glucuronyl glycolipid ligands. Similarly, COS cells may be transfected with cDNAs that encode L-SELECTIN and/or P-SELECTIN. The production and characterization of L-SELECTIN IgG chimera constructs have been previously described by Watson S. R. et al., (1990) J. Cell Biol. 110:2221-2229. This chimera contains two complement binding domains, consistent with its natural expression. See Watson S. R. et al., (1991) J. Cell Biol. 115:235-243. P-SELECTIN chimera was constructed in a similar manner as described by Walz, G., et al (1990) Science 250, 1132-1135, and Aruffo, A. et al. (1991) Cell, 67, 35-44, respectively. The chimeras may be expressed in a suitable host cell, for example, 293 cells and purified. Protein A affinity chromatography is the preferred method of purification. E-SELECTIN and P-SELECTIN may be constructed with truncated complement binding domains to standardize the size of the chimeras and to facilitate their secretion. A variation of the above assay is to genetically engineer cells to express high levels of L-SELECTIN, E-SELECTIN, or P-SELECTIN on their surface, and to use the cells in lieu of purified selectin. Radiolabeled COS cells have been used in this type of assay, and can be transfected with cDNA that encodes for L-SELECTIN, E-SELECTIN or P-SELECTIN. […] The number of adherent cells reflects the capacity of the ligand to bind to the selectin.
# Compounds 13a, 13b, 26 and 31 were tested for their capacity to bind to E, L and P selectin. The ELISA assay used consists of evaporating 2,3 sLex glycolipid, at 25 picomoles per well, onto microtiter wells, and then washing the excess off with water. The wells are blocked with 5% BSA at room temperature for an hour and then washed with PBS containing 1 mM Ca. While the plate is being blocked, biotin labelled goat F(ab')2 IgG (Fc specific) and streptavidinalkaline phosphatase diluted 1:1500 in 1% BSA-PBS (1 mM Ca) are combined with either the E, L or P Selectin-IgG chimera (L91-10) at 200 ng/mL and incubated at 37° C. for 15 minutes to allow a complex to form. This provides a soluble "multivalent" receptor. […] The solutions were then placed in the microtiter wells that had been washed after being blocked, and the plates incubated at 37° C. for 45 minutes to allow the soluble receptor to bind to the known natural ligand, 2,3 sLex glycolipid. The positive control was the signal produced by soluble "multivalent" receptor reacted with only the ligand evaporated to the microtiter well. This was considered "100% binding." The signal produced by receptor previously reacted with inhibitor is divided by the signal produced by the positive control, multiplied by 100, to calculate % receptor bound in the presence of the inhibitor. The reciprocal of this is % inhibition.
# [2] = system: E-SELECTIN (E Selectin-IgG chimera); assay: ELISA: inhibition of E-selectin binding to 2,3 sLex glycolipid
# From the text: as §1
# (§2) Compounds 13a, 13b, 26 and 31 were tested for their capacity to bind to E, L and P selectin. The ELISA assay used consists of evaporating 2,3 sLex glycolipid, at 25 picomoles per well, onto microtiter wells, and then washing the excess off with water. The wells are blocked with 5% BSA at room temperature for an hour and then washed with PBS containing 1 mM Ca. While the plate is being blocked, biotin labelled goat F(ab')2 IgG (Fc specific) and streptavidinalkaline phosphatase diluted 1:1500 in 1% BSA-PBS (1 mM Ca) are combined with either the E, L or P Selectin-IgG chimera (L91-10) at 200 ng/mL and incubated at 37° C. for 15 minutes to allow a complex to form. This provides a soluble "multivalent" receptor. Compounds 13a and 13b were added at final concentrations ranging from 1.5 to 5.0 mM to the soluble receptor and allowed to react at 37° C. for 45 minutes. The solutions were then placed in the microtiter wells that had been washed after being blocked, and the plates incubated at 37° C. for 45 minutes to allow the soluble receptor to bind to the known natural ligand, 2,3 sLex glycolipid. The positive control was the signal produced by soluble "multivalent" receptor reacted with only the ligand evaporated to the microtiter well. This was considered "100% binding." The signal produced by receptor previously reacted with inhibitor is divided by the signal produced by the positive control, multiplied by 100, to calculate % receptor bound in the presence of the inhibitor. The reciprocal of this is % inhibition.
# mammalian hepatocytes = settings: Lee et al. 1984, read-out: IC50 for inhibition of labeled ASOR binding; cited from earlier work
# [3] = system: P-SELECTIN (P Selectin-IgG chimera); assay: ELISA: inhibition of P-selectin binding to 2,3 sLex glycolipid
# From the text: as §1, §2
# [4] = system: neutrophil-dependent injury to the lung endothelium and alveolar epithelium; assay: Acute Lung Injury Assay (acid aspiration injury); type: in vivo, New Zealand White rabbits; settings: 10 mg/kg/hr IV; for Alveolar-arterial blood oxygen gradient: as compared to control animals
# From the text: Experiments were done to determine the effectiveness of compounds 13b or 31 in their ability to reduce neutrophil-dependent injury to the lung endothelium and alveolar epithelium following acid aspiration injury.
# Female New Zealand White rabbits (1 each/group, approx. 2 KG each) were anesthetized with halothane and ventilated with positive pressure ventilation supplemented with oxygen. Vascular catheters were placed in the carotid artery, into the internal jugular vein, and a tracheostomy was made for positive pressure ventilation. A low pH solution (HCl, pH 1.5) was installed in Ringer's lactate (osmolality=approximately 100) at a dose of 3 ml/kg into the trachea to stimulate a gastric aspiration induced lung injury. Compound 13b or 31 were injected (10 mg/kg/hr IV) 5 minutes prior to intratracheal instillation of the low pH solutions continued by hourly injections until the end of the experiment. Appropriate controls were used. An intravascular as well as an intra-alveolar radiolabelled protein tracer was injected to quantify lung endothelial and alveolar epithelial protein permeability. Arterial blood gases, systemic blood pressure and airways were monitored. At the end of 6 hours the lungs were removed and alveolar fluid was sampled from both lungs in order to measure the concentration of native protein as well as radiolabelled proteins in the airspaces to calculate lung vascular and lung epithelial permeability. Also, one lung was lavaged in order to count the neutrophils that are present in the airspaces of the lungs. Extravascular lung water measurements was done on the lung which was not lavaged. Histological samples were taken from selected portions of the lung.
# L-Selectin = settings: cited from earlier work
# P-SELECTIN = settings: cited from earlier work
# [5] = system: adhesion of human neutrophils in the rabbit isolated heart; assay: Reperfusion Injury Assay: complement-induced neutrophil adhesion in isolated perfused heart; design: species or system human neutrophils; New Zealand White rabbit heart
# From the text: Experiments were done to determine the effectiveness of compound 13b in decreasing adhesion of human neutrophils in the rabbit isolated […]. Addition of the human plasma to the rabbit isolated […] results in activation of the complement components found within the plasma, which in turn promotes an increase in the neutrophil accumulation. This model is used to determine the effect of lactose derivatives on inhibiting complement-induced neutrophil adhesion.
# Hearts from New Zealand White rabbits were excised, mounted on a modified Langendorff apparatus and perfused with Krebs-Heinseleit buffer. Cardiac functional parameters were monitored upon a Grass Model 79D polygraph machine. 4% normal human plasma (NHP) was added to the recirculating buffer. Ten minutes after the addition of the plasma, 13b (0.1 mg/ml) was added to the perfusate. After 15 minutes of perfusion with the plasma, 51-chromium labelled human neutrophils (1×10^5 /ml) were added to the perfusate and allowed to recirculate for an additional 15 minutes. At the end of this time the hearts were washed with fresh buffer to remove non-specifically bound neutrophils, dried and counted in a well type gamma-counter. A concentration response curve was generated using concentrations of 0.001, 0.01 and 0.1 mg/ml. Six hearts were used for each of these concentrations.
# Table 4 lists the results, expressed as the percent inhibition of neutrophil accumulation.
molecule,measurement,setting,value
"C[C@@H]1O[C@@H](O[C@@H]2[C@@H](O)[C@H](OCC[Si](C)(C)C)O[C@H](CO)[C@H]2O[C@@H]2O[C@H](CO)[C@H](O)[C@H](OS(=O)(=O)O)[C@H]2O)[C@@H](O)[C@H](O)[C@@H]1O [Compound 13a, 2-(Trimethylsilyl) ethyl O-α-L-fucopyranosyl-(1→3)-O-[sodium-β-D-galactopyranosyl3-sulfate-(1→4)]-β-D-glucopyranoside]","inhibition of binding of L selectin to 2,3 sLex glycolipid (in words)",[1],inhibit binding of L selectin
same,% INHIBITION of L-selectin binding to sLeX,[1]; 1.25 mM,13%
same,% INHIBITION of L-selectin binding to sLeX,[1]; 2.5 mM,27%
same,% INHIBITION of L-selectin binding to sLeX,[1]; 5.0 mM,47%
same,"inhibition of binding of E selectin to 2,3 sLex glycolipid (in words)",[2],"inhibit binding of E selectin to 2,3 sLex glycolipid"
same,% INHIBITION of E-selectin binding to sLeX,[2]; 1.25 mM,30%
same,% INHIBITION of E-selectin binding to sLeX,[2]; 2.5 mM,34%
same,% INHIBITION of E-selectin binding to sLeX,[2]; 5.0 mM,48%
"OC[C@H]1O[C@@H](O[C@H]2[C@H](O)[C@@H](O)C(O)O[C@@H]2CO)[C@H](O)[C@@H](O)[C@H]1O (stereo partly shown) [single valent lactose, lactose]",IC50,mammalian hepatocytes,500 µM
CCCCCCCCO[C@@H]1O[C@H](CO)[C@@H](O[C@@H]2O[C@H](CO)[C@H](O)[C@H](OS(=O)(=O)O)[C@H]2O)[C@H](O[C@@H]2O[C@@H](C)[C@@H](O)[C@@H](O)[C@@H]2O)[C@H]1O [Compound 26],% INHIBITION of L-selectin binding to sLeX,[1]; 0.5 mM,0%
same,% INHIBITION of L-selectin binding to sLeX,[1]; 1.0 mM,30%
same,% INHIBITION of L-selectin binding to sLeX,[1]; 2.0 mM,30%
same,% INHIBITION of L-selectin binding to sLeX,[1]; 4.0 mM,30%
same,% INHIBITION of P-selectin binding to sLeX,[3]; 0.5 mM,0%
same,% INHIBITION of P-selectin binding to sLeX,[3]; 1.0 mM,20%
same,% INHIBITION of P-selectin binding to sLeX,[3]; 2.0 mM,40%
same,% INHIBITION of P-selectin binding to sLeX,[3]; 4.0 mM,45%
same,"inhibition of P selectin binding to 2,3 sLex glycolipid (in words)",[3]; as compared to L-selectin,better inhibitor of P selectin (as compared to L-selectin)
same,"inhibition of binding of E selectin to 2,3 sLex glycolipid (in words)",[2],"inhibit binding of E selectin to 2,3 sLex glycolipid"
same,% INHIBITION of E-selectin binding to sLeX,[2]; 0.5 mM,0%
same,% INHIBITION of E-selectin binding to sLeX,[2]; 1.0 mM,30%
same,% INHIBITION of E-selectin binding to sLeX,[2]; 2.0 mM,50%
same,% INHIBITION of E-selectin binding to sLeX,[2]; 4.0 mM,70%
"CCCCCCCCO[C@@H]1O[C@H](CO)[C@@H](O[C@@H]2O[C@H](CO)[C@H](O)[C@H](OS(=O)(=O)O)[C@H]2O)[C@H](O)[C@H]1O [Compound 31, Octyl 4-O-(sodium β-D-galactopyranosyl 3-sulfate)-β-glucopyranoside]",Alveolar-arterial blood oxygen gradient,[4],decrease
same,neutrophil-dependent injury to the lung endothelium and alveolar epithelium,[4]; following acid aspiration injury,effectively reduced neutrophil-dependent injury
same,"inhibition of binding of L selectin to 2,3 sLex glycolipid (in words)",[1],inactive
same,% INHIBITION of L-selectin binding to sLeX,[1]; 0.5 mM,0%
same,% INHIBITION of L-selectin binding to sLeX,[1]; 1.0 mM,0%
same,% INHIBITION of L-selectin binding to sLeX,[1]; 2.0 mM,0%
same,% INHIBITION of L-selectin binding to sLeX,[1]; 4.0 mM,0%
same,"inhibition of binding of E selectin to 2,3 sLex glycolipid (in words)",[2],inactive
same,% INHIBITION of E-selectin binding to sLeX,[2]; 0.5 mM,0%
same,% INHIBITION of E-selectin binding to sLeX,[2]; 1.0 mM,0%
same,% INHIBITION of E-selectin binding to sLeX,[2]; 2.0 mM,0%
same,% INHIBITION of E-selectin binding to sLeX,[2]; 4.0 mM,0%
"CC(=O)NC1C(O)CC(OC2C(O)C(CO)OC(OC3C(CO)OC(O)C(NC(C)=O)C3OC3OC(C)C(O)C(O)C3O)C2O)(C(=O)O)OC1C(O)C(O)CO (stereo not drawn) [sialyl Lewis X, NeuNAc α2-3-Gal-β1-4(Fucα1-3)-GlcNAc]",binding to L-Selectin,L-Selectin,binds
sulfatides,binding to P-Selectin,P-SELECTIN,bind
"C[C@@H]1O[C@@H](O[C@H]2[C@H](O[C@@H]3O[C@H](CO)[C@H](O)[C@H](OS(=O)(=O)O)[C@H]3O)[C@@H](CO)OC(O)[C@@H]2O)[C@@H](O)[C@H](O)[C@@H]1O (stereo partly drawn) [Compound 13b, O-α-L-fucopyranoayl-(1→3)-O-[sodium β-D-galactopyranosyl 3-sulfate-(1→4)]-D-glucopyranose]",Alveolar-arterial blood oxygen gradient,[4],decrease
same,"inhibition of binding of L selectin to 2,3 sLex glycolipid (in words)",[1],inhibit binding of L selectin
same,% INHIBITION of L-selectin binding to sLeX,[1]; 1.25 mM,90%
same,% INHIBITION of L-selectin binding to sLeX,[1]; 2.0 mM,100%
same,% INHIBITION of L-selectin binding to sLeX,[1]; 2.5 mM,100%
same,degree of inhibition of neutrophil adhesion (in words),[5]; 0.1 mg/ml,most significant degree of inhibition
same,inhibition of neutrophil adhesion (in words),"[5]; 0.001, 0.01 and 0.1 mg/ml",inhibited neutrophil adhesion in a concentration-dependent manner
same,inhibition at 100 µg/mL,"[5]; Neutrophil, Table 4, 13b (0.1 mg/ml) added to the perfusate, read-out: % Neutrophil Inhibition (percent inhibition of neutrophil accumulation)",35%
same,"inhibition of binding of E selectin to 2,3 sLex glycolipid (in words)",[2],"inhibit binding of E selectin to 2,3 sLex glycolipid"
same,% INHIBITION of E-selectin binding to sLeX,[2]; 1.25 mM,48.5%
same,% INHIBITION of E-selectin binding to sLeX,[2]; 2.5 mM,45.4%
same,% INHIBITION of E-selectin binding to sLeX,[2]; 5.0 mM,82.5%
